Read-outs that look alike come from different tables or passages of the source. *1 amine or outer side, *2 acyl side, *3 side chain or, on linkers, in order; H or OH if unused. Where a SMILES comes first, the peptide text is derived from it. Where no end group is shown, it is not given here. Side-chain parts run from the residue outwards. [ ]: non-standard residue; d: D form. The star is where a group is joined. C18 diacid = O=C(O)CCCCCCCCCCCCCCCCC(=O)*; γGlu = O=C(O)[C@H](CCC(=O)[*:2])N[*:1]; AEEA = NCCOCCOCC(=O)O; Aib = CC(C)(N)C(=O)O
Assays:
Assay type in all cases: cell-based
human GIPR = biological target: T1, human GIPR (Homo sapiens, UniProt P48546); assay: cAMP assay (HitHunter) in transiently transfected COS-7 cells expressing human GIPR; conditions: for EC50: cAMP, COS-7 cells, human GIPR
T1 construct: host or cells: COS-7
T1 sequence (P48546 22-466): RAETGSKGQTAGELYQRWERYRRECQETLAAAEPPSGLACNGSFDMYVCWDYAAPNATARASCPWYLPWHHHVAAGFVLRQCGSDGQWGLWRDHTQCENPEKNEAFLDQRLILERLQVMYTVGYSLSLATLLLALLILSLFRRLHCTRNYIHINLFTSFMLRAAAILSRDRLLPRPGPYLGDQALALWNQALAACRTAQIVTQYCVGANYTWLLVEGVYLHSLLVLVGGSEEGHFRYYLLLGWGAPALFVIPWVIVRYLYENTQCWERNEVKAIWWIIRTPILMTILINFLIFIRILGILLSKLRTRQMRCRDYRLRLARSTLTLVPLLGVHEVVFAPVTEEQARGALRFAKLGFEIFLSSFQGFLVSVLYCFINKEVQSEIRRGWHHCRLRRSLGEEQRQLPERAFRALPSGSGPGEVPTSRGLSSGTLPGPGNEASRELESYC

human GLP-2R = biological target: T2, human GLP-2R (Homo sapiens, UniProt O95838); assay: cAMP assay (HitHunter) in transiently transfected COS-7 cells expressing human GLP-2R; conditions: for EC50: COS-7 cells, human GLP-2R, read-out: EC50 (nM) GLP-2R
T2 construct: host or cells: COS-7
T2 sequence (O95838 1-553): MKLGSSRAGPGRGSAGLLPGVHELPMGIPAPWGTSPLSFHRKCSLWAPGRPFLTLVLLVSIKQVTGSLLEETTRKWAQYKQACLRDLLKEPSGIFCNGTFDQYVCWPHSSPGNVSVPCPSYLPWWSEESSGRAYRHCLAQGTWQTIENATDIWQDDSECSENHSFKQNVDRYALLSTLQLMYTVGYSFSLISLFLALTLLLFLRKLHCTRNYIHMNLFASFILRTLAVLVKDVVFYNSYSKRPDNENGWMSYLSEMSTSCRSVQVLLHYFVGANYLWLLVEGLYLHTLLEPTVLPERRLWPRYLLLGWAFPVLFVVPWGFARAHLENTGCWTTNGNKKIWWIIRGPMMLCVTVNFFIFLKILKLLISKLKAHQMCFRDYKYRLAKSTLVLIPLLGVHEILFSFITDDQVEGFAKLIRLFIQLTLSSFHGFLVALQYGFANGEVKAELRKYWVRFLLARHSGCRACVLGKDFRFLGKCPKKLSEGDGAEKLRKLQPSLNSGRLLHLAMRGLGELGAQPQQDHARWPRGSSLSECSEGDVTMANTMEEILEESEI

human GLP-1R = biological target: T3, human GLP-1R (Homo sapiens, UniProt P43220); assay: cAMP assay (HitHunter) in transiently transfected COS-7 cells expressing human GLP-1R
T3 construct: host or cells: COS-7

human SNAP-tagged GIPR = biological target: T4, human SNAP-tagged GIPR (Homo sapiens, UniProt P48546); assay: Receptor internalization assay, HEK293A cells expressing human SNAP-tagged GIPR; conditions: for Relative hGIPR internalization (%): relative to hGIP 1-42 = 100; for GIPR internalization (in words): compared to native GIP
T4 construct: host or cells: HEK293A
T4 sequence (P48546 22-466): T1 sequence (P48546 22-466)

[1] = COS-7, normalized to highest concentration of the endogenous ligand, read-out: Efficacy GIPR (Emax)
[2] = COS-7, normalized to highest concentration of the endogenous ligand, read-out: Efficacy GLP-2R (Emax)
[3] = COS-7, normalized to highest concentration of the endogenous ligand, read-out: Efficacy GLP-1R (Emax)
[4] = AUC of sigmoid curves up to 1 μM, 60 minutes at 37° C.
[5] = cAMP, COS-7 cells, human GLP-1R, read-out: EC50 (nM) GLP-1R

T3 sequence (P43220 24-463): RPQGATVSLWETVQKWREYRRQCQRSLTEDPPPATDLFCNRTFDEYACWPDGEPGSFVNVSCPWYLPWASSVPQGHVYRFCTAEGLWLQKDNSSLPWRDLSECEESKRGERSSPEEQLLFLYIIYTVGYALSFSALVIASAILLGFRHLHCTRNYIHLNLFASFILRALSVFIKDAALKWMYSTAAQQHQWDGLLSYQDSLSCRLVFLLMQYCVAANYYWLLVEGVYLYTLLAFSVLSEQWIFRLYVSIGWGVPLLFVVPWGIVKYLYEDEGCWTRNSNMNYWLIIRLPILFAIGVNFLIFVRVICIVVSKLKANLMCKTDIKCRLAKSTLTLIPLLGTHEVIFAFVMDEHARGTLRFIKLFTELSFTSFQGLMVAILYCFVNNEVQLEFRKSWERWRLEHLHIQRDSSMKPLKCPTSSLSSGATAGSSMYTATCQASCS

## CCCCCCCCCC(=O)NCCCC[C@H](NC(=O)[C@@H](NC(=O)[C@@H](NC(=O)[C@H](CCCCN)NC(=O)[C@@H](NC(=O)[C@H](CCC(N)=O)NC(=O)[C@@H](NC(=O)[C@H](CC(C)C)NC(=O)[C@H](Cc1c[nH]c2ccccc12)NC(=O)[C@H](CC(N)=O)NC(=O)[C@@H](NC(=O)[C@H](Cc1ccccc1)NC(=O)[C@H](CC(=O)O)NC(=O)[C@H](CCCNC(=N)N)NC(=O)[C@H](C)NC(=O)[C@H](C)NC(=O)[C@H](CC(C)C)NC(=O)[C@H](CC(N)=O)NC(=O)[C@H](CC(=O)O)NC(=O)[C@H](CC(C)C)NC(=O)[C@@H](NC(=O)[C@@H](NC(=O)[C@H](CO)NC(=O)[C@H](Cc1ccc(O)cc1)NC(=O)[C@H](CC(=O)O)NC(=O)[C@H](CO)NC(=O)[C@@H](NC(=O)[C@H](Cc1ccccc1)NC(=O)[C@@H](NC(=O)CNC(=O)[C@H](CC(=O)O)NC(=O)C(C)(C)NC(=O)[C@@H](N)Cc1c[nH]cn1)[C@@H](C)O)[C@@H](C)CC)[C@@H](C)O)[C@@H](C)CC)[C@@H](C)CC)[C@@H](C)CC)[C@@H](C)O)[C@@H](C)CC)[C@@H](C)O)C(N)=O [Compound 1]
Human GIPR; [1]
  Emax: 93%
Human GLP-2R; [2]
  Emax: 96%
Human GLP-2R; cAMP
  EC50: 2 nM
Human GLP-1R; [3]
  Emax: 101%
Human SNAP-tagged GIPR; [4]
  Absolute hGIPR internalization (AUC): 5.3

## CCCCCCCCCC(=O)N[C@@H](CCC(=O)NCCCC[C@H](NC(=O)[C@@H](NC(=O)[C@@H](NC(=O)[C@H](CCCCN)NC(=O)[C@@H](NC(=O)[C@H](CCC(N)=O)NC(=O)[C@@H](NC(=O)[C@H](CC(C)C)NC(=O)[C@H](Cc1c[nH]c2ccccc12)NC(=O)[C@H](CC(N)=O)NC(=O)[C@@H](NC(=O)[C@H](Cc1ccccc1)NC(=O)[C@H](CC(=O)O)NC(=O)[C@H](CCCNC(=N)N)NC(=O)[C@H](C)NC(=O)[C@H](C)NC(=O)[C@H](CC(C)C)NC(=O)[C@H](CC(N)=O)NC(=O)[C@H](CC(=O)O)NC(=O)[C@H](CC(C)C)NC(=O)[C@@H](NC(=O)[C@@H](NC(=O)[C@H](CO)NC(=O)[C@H](Cc1ccc(O)cc1)NC(=O)[C@H](CC(=O)O)NC(=O)[C@H](CO)NC(=O)[C@@H](NC(=O)[C@H](Cc1ccccc1)NC(=O)[C@@H](NC(=O)CNC(=O)[C@H](CC(=O)O)NC(=O)C(C)(C)NC(=O)[C@@H](N)Cc1c[nH]cn1)[C@@H](C)O)[C@@H](C)CC)[C@@H](C)O)[C@@H](C)CC)[C@@H](C)CC)[C@@H](C)CC)[C@@H](C)O)[C@@H](C)CC)[C@@H](C)O)C(N)=O)C(=O)O [Compound 17]
Human GIPR; [1]
  Emax: 97%
Human GLP-2R; [2]
  Emax: 92%
Human GLP-1R; [3]
  Emax: 107%

## CC[C@H](C)[C@H](NC(=O)[C@H](Cc1ccccc1)NC(=O)[C@H](CC(=O)O)NC(=O)[C@H](CCCCNC(=O)COCCOCCNC(=O)COCCOCCNC(=O)CC[C@H](NC(=O)CCCCCCCCCCCCCCCCC(=O)O)C(=O)O)NC(=O)[C@H](C)NC(=O)[C@H](C)NC(=O)[C@H](CC(C)C)NC(=O)[C@H](CC(N)=O)NC(=O)[C@H](CC(=O)O)NC(=O)[C@H](CC(C)C)NC(=O)[C@@H](NC(=O)[C@@H](NC(=O)[C@H](CO)NC(=O)[C@H](Cc1ccc(O)cc1)NC(=O)[C@H](CC(=O)O)NC(=O)[C@H](CO)NC(=O)[C@@H](NC(=O)[C@H](Cc1ccccc1)NC(=O)[C@@H](NC(=O)CNC(=O)[C@H](CC(=O)O)NC(=O)[C@H](C)NC(=O)[C@@H](N)Cc1c[nH]cn1)[C@@H](C)O)[C@@H](C)O)[C@@H](C)O)[C@@H](C)CC)C(=O)N[C@@H](CC(N)=O)C(=O)N[C@@H](Cc1c[nH]c2ccccc12)C(=O)N[C@@H](CC(C)C)C(=O)N[C@H](C(=O)N[C@@H](CCC(N)=O)C(=O)N[C@H](C(=O)N[C@@H](CCCCN)C(=O)NCC(=O)N[C@@H](CCCCN)C(=O)N[C@@H](CCCCN)C(=O)O)[C@@H](C)O)[C@@H](C)CC [Compound 18]
Human GIPR; [1]
  Emax: 82%
Human GLP-2R; [2]
  Emax: 91%
Human GLP-1R; [3]
  Emax: 112%
Human GLP-1R; [5]
  EC50: 0.06 nM
Human SNAP-tagged GIPR; [4]
  Absolute hGIPR internalization (AUC): 2.1

## CC[C@H](C)[C@H](NC(=O)[C@H](Cc1ccccc1)NC(=O)[C@H](CC(=O)O)NC(=O)[C@H](CCCNC(=N)N)NC(=O)[C@H](C)NC(=O)[C@H](C)NC(=O)[C@H](CC(C)C)NC(=O)[C@H](CC(N)=O)NC(=O)[C@H](CC(=O)O)NC(=O)[C@H](CC(C)C)NC(=O)[C@@H](NC(=O)[C@@H](NC(=O)[C@H](CO)NC(=O)[C@H](Cc1ccc(O)cc1)NC(=O)[C@H](CC(=O)O)NC(=O)[C@H](CO)NC(=O)[C@@H](NC(=O)[C@H](Cc1ccccc1)NC(=O)[C@@H](NC(=O)CNC(=O)[C@H](CC(=O)O)NC(=O)[C@H](C)NC(=O)[C@@H](N)Cc1c[nH]cn1)[C@@H](C)O)[C@@H](C)O)[C@@H](C)O)[C@@H](C)CC)C(=O)N[C@@H](CC(N)=O)C(=O)N[C@@H](Cc1c[nH]c2ccccc12)C(=O)N[C@@H](CC(C)C)C(=O)N[C@H](C(=O)N[C@@H](CCC(N)=O)C(=O)N[C@H](C(=O)N[C@@H](CCCCN)C(=O)NCC(=O)N[C@@H](CCCCN)C(=O)N[C@@H](CCCCNC(=O)CC[C@H](NC(=O)CCCCCCCCCCCCCCCCC(=O)O)C(=O)O)C(=O)O)[C@@H](C)O)[C@@H](C)CC [Compound 19] (H-HADGTFTSDYSTILDNLAARDFINWLIQTKGKK([γGlu-C18 diacid])-OH; N-terminus assumed)
Human GIPR; [1]
  Emax: 92%
Human GIPR
  EC50: 0.631 nM
Human GLP-2R; [2]
  Emax: 94%
Human GLP-2R; cAMP, fatty acid at C-terminus of 1-33 or 1-34 backbone
  GLP-2R activation (in words): reduction in GLP-2R activation
Human GLP-1R; [3]
  Emax: 106%
Human GLP-1R; [5]
  EC50: 0.06 nM
Human SNAP-tagged GIPR; [4]
  Absolute hGIPR internalization (AUC): 8.9
Human SNAP-tagged GIPR
  Relative hGIPR internalization (%): 24%

## H-HADGTFTSDYSTILDKLAARDFINWLIQTKGKKNDWK([AEEA-AEEA-γGlu-C18 diacid])HNITQ-OH [Compound 25]
Human GIPR; [1]
  Emax: 107%
Human GIPR
  EC50: 0.398 nM
Human GLP-2R; [2]
  Emax: 117%
Human GLP-1R; [3]
  Emax: 116%
Human GLP-1R; [5]
  EC50: 0.05 nM
Human SNAP-tagged GIPR; [4]
  Absolute hGIPR internalization (AUC): 13.1
Human SNAP-tagged GIPR
  Relative hGIPR internalization (%): 35%

## HADGTFTSDYSTILDKK([AEEA-AEEA-γGlu-C18 diacid])AARDFINWLIQTKGKKNDWKHNITQ [Compound 23]
Human GIPR; COS-7, read-out: Efficacy GIPR (Emax)
  Emax: 82%
Human GLP-2R; COS-7, read-out: Efficacy GLP-2R (Emax)
  Emax: 95%
Human GLP-1R
  EC50: 0.05 nM
Human GLP-1R; COS-7, read-out: Efficacy GLP-1R (Emax)
  Emax: 105%
Human SNAP-tagged GIPR
  Absolute hGIPR internalization (AUC): 1.2
  Relative hGIPR internalization (%): 3%

## HADGTFTSDYSTILDKLAARDFINWLIQTKGKK([AEEA-AEEA-γGlu-C18 diacid])NDWKHNITQ-OH [Compound 24]
Human GIPR; [1]
  Emax: 96%
Human GIPR
  EC50: 0.398 nM
Human GLP-2R; [2]
  Emax: 91%
Human GLP-1R; [3]
  Emax: 113%
Human GLP-1R; [5]
  EC50: 0.05 nM
Human SNAP-tagged GIPR; [4]
  Absolute hGIPR internalization (AUC): 15.0
Human SNAP-tagged GIPR
  Relative hGIPR internalization (%): 41%

## HADGTFTSDYSTILDKLAARDFINWLIQTKGKKNDWKHNITQK([AEEA-AEEA-γGlu-C18 diacid])-OH [Compound 26]
Human GIPR; [1]
  Emax: 106%
Human GIPR
  EC50: 0.316 nM
Human GLP-2R; [2]
  Emax: 112%
Human GLP-1R; [3]
  Emax: 103%
Human GLP-1R; cAMP, COS-7 cells, human GLP-1R, read-out: logEC50 GLP-1R (converted)
  EC50: 0.0398 nM
Human SNAP-tagged GIPR; [4]
  Absolute hGIPR internalization (AUC): 16.4
Human SNAP-tagged GIPR
  GIPR internalization (in words): internalization of the GIPR to a higher extent
  Relative hGIPR internalization (%): 44%

## HADGTFTSDYST[Aib]LDKLAARDFINWLIQTKGKKNDWKHNITQK([AEEA-AEEA-γGlu-C18 diacid])-OH [Compound 27]
Human GIPR; [1]
  Emax: 124%
Human GLP-2R; [2]
  Emax: 85%
Human GLP-2R; cAMP
  EC50: 3.2 nM
Human GLP-1R; [3]
  Emax: 115%
Human GLP-1R; [5]
  EC50: 0.05 nM
Human SNAP-tagged GIPR; [4]
  Absolute hGIPR internalization (AUC): 9.0
Human SNAP-tagged GIPR
  GIPR internalization (in words): internalization of the GIPR to a higher extent
  Relative hGIPR internalization (%): 24%

From patent US20250304644A1, “PEPTIDES TRIPLE AGONISTS OF GIP, GLP-1 AND GLP-2” (BAINAN BIOTECH APS, priority 2021, published 2025)
